Results on three molecules are retold here after publication PMC9231011, “Irreversible Antagonists for the Adenosine A2B Receptor” (Molecules, 2022).

In general, Ki refers to the equilibrium dissociation constant of an inhibitor or competing ligand from its target. As a reminder, the Kd is the free concentration of one partner at which half of the binding sites on the other are occupied at equilibrium, for simple one-to-one binding.

The target of one assay is hA1. More on the design: method as in PMID 30835463, PMID 31646479. The following applies: Figure 1; cited from earlier work.
A further assay has as its target hA2B. More on the design: method as in PMID 30835463, PMID 31646479. The following applies: Figure 1; cited from earlier work.
Another assay concerns the target hA3. More on the design: method as in PMID 30835463, PMID 31646479. Particulars: Figure 1; cited from earlier work.
A further assay concerns the target hA2A. More on the design: method as in PMID 30835463, PMID 31646479. The following applies: Figure 1; cited from earlier work.
The target in another assay is T1, A2BAR (Homo sapiens, UniProt P29275).
T1 sequence (P29275 1-332): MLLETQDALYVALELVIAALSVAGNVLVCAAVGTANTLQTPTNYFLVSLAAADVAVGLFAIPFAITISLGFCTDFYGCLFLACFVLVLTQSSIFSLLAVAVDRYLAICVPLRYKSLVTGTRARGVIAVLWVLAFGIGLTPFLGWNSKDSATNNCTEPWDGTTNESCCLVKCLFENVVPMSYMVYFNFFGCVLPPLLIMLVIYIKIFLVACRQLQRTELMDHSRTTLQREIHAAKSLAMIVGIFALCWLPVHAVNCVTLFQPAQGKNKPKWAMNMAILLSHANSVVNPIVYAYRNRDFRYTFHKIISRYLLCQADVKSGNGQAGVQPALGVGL
More on the design: purchased Perkin Elmer ES-013-M400UA; method as in PMID 19569717. The following applies: wt A2BAR; read-out: KD of [3H]PSB-603; cited from earlier work.

The target in assay [1] is T2, mutant human A2BAR (K269^7.32L) (Homo sapiens, UniProt P29275, K269L).
T2 construct: expressed in transfected cells; host or cells: FreeStyle CHO-S cells, pcDNA3.1(+), transient
T2 sequence (P29275 1-332 K269L): T1 sequence (P29275 1-332) with K269L
Briefly: Homologous competition binding of PSB-603 vs [3H]PSB-603 at mutant. The following applies: K269^7.32L mutant. How it is done: The human A2AAR, the mutant human A2BAR (K269^7.32L), and the human A3AR were transiently expressed in FreeStyle^TM CHO-S cells using the transfection reagent polyethylenimine (PEI) at a ratio of 1:3 to DNA according to the manufacturer’s guideline. pcDNA3.1(+) was used as the transfection vector containing the cDNA for either the wt ARs or the K269^7.32L mutant A2BAR that was prepared by site-directed mutagenesis with the following primer: forward […], reverse […]. CHO-S cells were grown in FreeStyle^TM CHO Expression Medium supplemented with 8 mM L-glutamine before use and split to 0.5 mio. cells per mL the day before transfection. Twenty-four hours after transfection, cells were spun down by centrifugation for 15 min at 500× g. […]
Binding experiments were performed using 50 mM Tris buffer (pH 7.4) in a total volume of 400 µL for the A1AR, A2AAR, A3AR, and 1000 µL for the A2BAR. […] Non-specific binding was determined in the presence of 10 µM of 2-chloroadenosine, 10 µM of CGS 15943, 10 µM of 8-cyclopently-1,3-dipropylxanthine or 100 µM of (R)-N^6-phenylisopropyadenosine for A1-, A2A-, A2B- and A3ARs, respectively. […] Subsequently, radioactivity was determined using a liquid scintillation counter (Tricarb 2810TR, Perkin Elmer).

Substitutions are numbered along the chain they refer to. Bounds are passed on as bounds.

`CCn1c(=O)c2c(nc(/C=C/c3ccc(OC)c(OC)c3)n2C)n(CC)c1=O` [Istradefylline, istradefylline]: the inhibition constant (Ki) at hA1 is 841 nM; on hA2B, more than 10000 nM; on hA3, 4470 nM; on hA2A, 26.4 nM.

Regarding `CCCn1c(=O)[nH]c2nc(-c3ccc(S(=O)(=O)N4CCN(c5ccc(Cl)cc5)CC4)cc3)[nH]c2c1=O` [PSB-603], the Kd on A2BAR is 0.553 ± 0.103 nM; in assay [1], 0.292 ± 0.034 nM. For the same molecule, the Ki was more than 10000 nM at hA1, 0.553 nM on hA2B, more than 10000 nM on hA3 and more than 10000 nM on hA2A. Moreover, the “KD of [3H]PSB-603” value in assay [1] was “did not alter”.

For `CCCn1c(=O)[nH]c2nc(-c3ccc(S(=O)(=O)N4CCN(c5ccc(Br)cc5)CC4)cc3)[nH]c2c1=O` [PSB-1901], the Ki at hA1 is more than 1000 nM; on hA2B it was 0.0835 nM; on hA3, more than 1000 nM; on hA2A, more than 1000 nM.
